# Data: publication PMC7309225, “Synthesis, Biodistribution, and Radiation Dosimetry of a Novel mGluR5 Radioligand: ^18F-AZD9272” (ACS Chemical Neuroscience, 2020)
# Several values for one entry are separate records, joined by “and”; a condition that tells them apart may be missing. Identical values can stand only once.
# Experiments:
# [1] = Stability of formulated radioligand in PBS (analytical radio-HPLC); assay type: physicochemical
# Description: The radiochemical purity, identity, and stability of ^18F-AZD9272 was determined by using an analytical HPLC system which included a ACE RP column (C18, 3.9 Ø × 250 mm, 5 μm particle size), Merck-Hitatchi L-7100 Pump, L-7400 UV detector, and GM tube for radioactivity detection (VWR International). The mobile phase CH3CN/0.1% TFA with a gradient HPLC method (10–90% in 8 min) and flow rate of 3 mL/min was used to elute the product. The effluent was monitored with a UV absorbance detector (λ = 270 nm) coupled to a radioactive detector (b-flow, Beckman, Fullerton, CA). The retention time (Rt) of ^18F-AZD9272 was 4–5 min. The identity of ^18F-AZD9272 was confirmed by using HPLC with the coinjection of the authentic nonradioactive AZD9272 (3-fluoro-5-(3-(5-fluoropyridin-2-yl)-1,2,4-oxadiazol-5-yl)benzonitrile) standard.
# [2] = Whole body PET and radiation dosimetry (OLINDA/EXM 1.1); assay type: in vivo, cynomolgus monkey; settings: for Estimated radiation dose: human estimate, adult male model
# Description: Two female cynomolgus monkeys (NHP3: 7420 g and NHP4: 6360 g) were used in this study. Anesthesia was induced by intramuscular injection of ketamine hydrochloride (approximately 10 mg/kg) at AFL and maintained by intravenous infusion of ketamine (4 mg/kg/h) and xylazine (0.4 mg/kg/h) with a pump. The body of the NHP was immobilized using a vacuum pad. Body temperature was maintained by using a Bair Hugger system (model 505, Arizant Healthcare, MN) and monitored with an esophageal thermometer. Heart rate, blood pressure, respiratory rate, and oxygen saturation were continuously monitored throughout the experiments. Fluid balance was maintained by continuous infusion of saline.
# Whole-body PET scans were conducted using a GE Discovery PET/CT 710 system (GE Healthcare, Waukesha, WI). One low-dose CT scan was performed before intravenous administration of ^18F-AZD9272 for attenuation correction. Then five series of PET acquisitions, each covering five axial fields of view (AFOV), were conducted. The five PET series consisted of two 20 s × 5 AFOV, three 40 s × 5 AFOV, three 80 s × 5 AFOV, three 160 s × 5 AFOV, and eight 240 s × 5 AFOV. The total duration of the whole-body PET measurement was around 4 h. PET images were reconstructed with a 3D ordered-subset expectation maximization (OSEM) algorithm with three iterations and 18 subsets, including the time-of-flight information (VUE Point FX) and the point spread function correction (Sharp IR). A 2D Gaussian filter with 5.5 mm cutoff was used.
# ROIs were drawn for the brain, heart, liver, lung, kidney, gall bladder, bone (lumbar vertebrae), urinary bladder, stomach, small intestine, spleen, and pancreas with the help of the CT images for anatomic landmarks. The time–activity curve was expressed as the percentage of the injected dose (%ID) calculated as follows: decay-corrected radioactivity (Bq/cc) × ROI volume (cc)/injected dose (Bq) × 100.
# Estimates of the absorbed radiation dose in humans were calculated with OLINDA/EXM 1.1 (Organ Level INternal Dose Assessment Code) software, using the adult male (70 kg) reference model.[36] The fractional uptake in NHP organs was assumed to be equal to the uptake in human organs.
# [3] = tested on: monoamine oxidase-B (MAO-B); parameters: method as in PMID 23541825; settings: NHP brain; cited from earlier work
# [4] = Radiometabolite analysis of plasma by radio-HPLC during PET; assay type: in vivo, cynomolgus monkey
# Description: An automated blood sampling system (ABSS) was used to measure the continuous radioactivity for the first 3 min after the radioligand injection. Then, blood sampling was performed manually for the measurement of metabolism and radioactivity at 5, 15, 30, 60, 90, and 120 min after the injection. A reversed-phase radio-HPLC method was used to determine the amount of unchanged ^18F-AZD9272 and its radioactive metabolites in NHP plasma.[35]
compound,measurement,setting,value
"N#Cc1cc(F)cc(-c2nc(-c3ccc([18F])cn3)no2)c1 [^18F-AZD9272, 3-fluoro-5-(3-(5-[^18F]fluoropyridin-2-yl)-1,2,4-oxadiazol-5-yl)benzonitrile]",Radiochemical purity after storage (stability),[1]; 2 h after formulation in sterile phosphate buffered solution (pH = 7.4),> 99%
same,Stability in PBS buffered solution,"[1]; pH = 7.4, duration of 120 min",stable
same,Estimated radiation dose,"[2]; LLI wall, NHP3",26.8 μSv/MBq
same,Estimated radiation dose,"[2]; LLI wall, NHP4",27.9 μSv/MBq
same,Estimated radiation dose,"[2]; LLI wall, mean",27.4 μSv/MBq
same,Whole body organ uptake (PET),[2]; NHP whole body,"High uptakes were seen in liver and small intestine, followed by brain and kidney"
same,Estimated radiation dose,"[2]; ULI wall, NHP3",65.7 μSv/MBq
same,Estimated radiation dose,"[2]; ULI wall, NHP4",69.4 μSv/MBq
same,Estimated radiation dose,"[2]; ULI wall, mean",67.6 μSv/MBq
same,Estimated radiation dose,"[2]; adrenals, NHP3",14.6 μSv/MBq
same,Estimated radiation dose,"[2]; adrenals, NHP4",14.1 μSv/MBq
same,Estimated radiation dose,"[2]; adrenals, mean",14.4 μSv/MBq
same,Estimated radiation dose,"[2]; brain, NHP3",13.0 μSv/MBq
same,Estimated radiation dose,"[2]; brain, NHP4",17.4 μSv/MBq
same,Estimated radiation dose,"[2]; brain, mean",15.2 μSv/MBq
same,Estimated radiation dose,"[2]; breasts, NHP3",8.0 μSv/MBq
same,Estimated radiation dose,"[2]; breasts, NHP4",7.9 μSv/MBq
same,Estimated radiation dose,"[2]; breasts, mean",7.9 μSv/MBq
same,Estimated radiation dose,"[2]; effective dose, NHP3",17.4 μSv/MBq
same,Estimated radiation dose,"[2]; effective dose, NHP4",17.4 μSv/MBq
same,Estimated radiation dose,"[2]; effective dose, mean",17.4 μSv/MBq
same,Estimated radiation dose,"[2]; gallbladder wall, NHP3",21.3 μSv/MBq
same,Estimated radiation dose,"[2]; gallbladder wall, NHP4",21.1 μSv/MBq
same,Estimated radiation dose,"[2]; gallbladder wall, mean",21.2 μSv/MBq
same,Estimated radiation dose,"[2]; heart wall, NHP3",17.5 μSv/MBq
same,Estimated radiation dose,"[2]; heart wall, NHP4",19.0 μSv/MBq
same,Estimated radiation dose,"[2]; heart wall, mean",18.3 μSv/MBq
same,"Human radiation dose estimate, upper large intestine (ULI) wall",[2]; highest-dose organ,around 0.068 mSv/MBq
same,Radioactivity that can be injected to humans,[2]; if the limit is 10 mSv for the total radiation exposure,570 MBq
same,Estimated radiation dose,"[2]; kidneys, NHP3",42.3 μSv/MBq
same,Estimated radiation dose,"[2]; kidneys, NHP4",29.6 μSv/MBq
same,Estimated radiation dose,"[2]; kidneys, mean",36.0 μSv/MBq
same,Estimated radiation dose,"[2]; liver, NHP3",47.0 μSv/MBq
same,Estimated radiation dose,"[2]; liver, NHP4",45.7 μSv/MBq
same,Estimated radiation dose,"[2]; liver, mean",46.4 μSv/MBq
same,Estimated radiation dose,"[2]; lungs, NHP3",12.7 μSv/MBq
same,Estimated radiation dose,"[2]; lungs, NHP4",11.8 μSv/MBq
same,Estimated radiation dose,"[2]; lungs, mean",12.3 μSv/MBq
same,"Human radiation dose estimate, most organs",[2]; most organs,0.01–0.02 mSv/MBq
same,Estimated radiation dose,"[2]; muscle, NHP3",10.1 μSv/MBq
same,Estimated radiation dose,"[2]; muscle, NHP4",10.0 μSv/MBq
same,Estimated radiation dose,"[2]; muscle, mean",10.1 μSv/MBq
same,Estimated radiation dose,"[2]; osteogenic cells, NHP3",14.5 μSv/MBq
same,Estimated radiation dose,"[2]; osteogenic cells, NHP4",14.5 μSv/MBq
same,Estimated radiation dose,"[2]; osteogenic cells, mean",14.5 μSv/MBq
same,Estimated radiation dose,"[2]; ovaries, NHP3",18.2 μSv/MBq
same,Estimated radiation dose,"[2]; ovaries, NHP4",18.6 μSv/MBq
same,Estimated radiation dose,"[2]; ovaries, mean",18.4 μSv/MBq
same,Estimated radiation dose,"[2]; pancreas, NHP3",16.4 μSv/MBq
same,Estimated radiation dose,"[2]; pancreas, NHP4",15.4 μSv/MBq
same,Estimated radiation dose,"[2]; pancreas, mean",15.9 μSv/MBq
same,Estimated radiation dose,"[2]; red marrow, NHP3",10.7 μSv/MBq
same,Estimated radiation dose,"[2]; red marrow, NHP4",10.7 μSv/MBq
same,Estimated radiation dose,"[2]; red marrow, mean",10.7 μSv/MBq
same,Estimated radiation dose,"[2]; skin, NHP3",7.4 μSv/MBq
same,Estimated radiation dose,"[2]; skin, NHP4",7.4 μSv/MBq
same,Estimated radiation dose,"[2]; skin, mean",7.4 μSv/MBq
same,Estimated radiation dose,"[2]; small intestine, NHP3",58.9 μSv/MBq
same,Estimated radiation dose,"[2]; small intestine, NHP4",62.1 μSv/MBq
same,Estimated radiation dose,"[2]; small intestine, mean",60.5 μSv/MBq
same,Estimated radiation dose,"[2]; spleen, NHP3",9.6 μSv/MBq
same,Estimated radiation dose,"[2]; spleen, NHP4",8.4 μSv/MBq
same,Estimated radiation dose,"[2]; spleen, mean",9.0 μSv/MBq
same,Estimated radiation dose,"[2]; stomach wall, NHP3",13.2 μSv/MBq
same,Estimated radiation dose,"[2]; stomach wall, NHP4",13.1 μSv/MBq
same,Estimated radiation dose,"[2]; stomach wall, mean",13.2 μSv/MBq
same,Estimated radiation dose,"[2]; testes, NHP3",8.7 μSv/MBq
same,Estimated radiation dose,"[2]; testes, NHP4",8.6 μSv/MBq
same,Estimated radiation dose,"[2]; testes, mean",8.7 μSv/MBq
same,Estimated radiation dose,"[2]; thymus, NHP3",9.7 μSv/MBq
same,Estimated radiation dose,"[2]; thymus, NHP4",9.6 μSv/MBq
same,Estimated radiation dose,"[2]; thymus, mean",9.6 μSv/MBq
same,Estimated radiation dose,"[2]; thyroid, NHP3",9.1 μSv/MBq
same,Estimated radiation dose,"[2]; thyroid, NHP4",9.1 μSv/MBq
same,Estimated radiation dose,"[2]; thyroid, mean",9.1 μSv/MBq
same,Estimated radiation dose,"[2]; total body, NHP3",12.2 μSv/MBq
same,Estimated radiation dose,"[2]; total body, NHP4",12.1 μSv/MBq
same,Estimated radiation dose,"[2]; total body, mean",12.2 μSv/MBq
same,Estimated radiation dose,"[2]; urinary bladder wall, NHP3",11.3 μSv/MBq
same,Estimated radiation dose,"[2]; urinary bladder wall, NHP4",11.4 μSv/MBq
same,Estimated radiation dose,"[2]; urinary bladder wall, mean",11.4 μSv/MBq
same,Estimated radiation dose,"[2]; uterus, NHP3",16.1 μSv/MBq
same,Estimated radiation dose,"[2]; uterus, NHP4",16.3 μSv/MBq
same,Estimated radiation dose,"[2]; uterus, mean",16.2 μSv/MBq
same,Specific binding inhibited by administration of a MAO-B-selective ligand,[3],approximately 90%
same,Parent compound in plasma,[4]; 5 min after injection,approximately 95%
same,Percentage of parent radioligand in plasma,"[4]; 120 min after injection, individual animals (n = 2)",59% and 64%
